Measured values as given in ChEMBL document CHEMBL1201862, “PubChem BioAssay data set” (2004).
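A five-concentration, 48-hour dose response in 96-well plates underlies each endpoint, interpolated linearly between surrounding concentrations. At the GI50, growth is halved.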 Activity calls are given as the source filed them. Cut-off read from the data, not from the text of the source: active = GI50 up to about 1.1 µM and inactive = higher.

How the values were obtained:
Assay in all cases: NCI anticancer screen, dose series, 48 h
A549 = tested on: A549
NCI-H226 = tested on: NCI-H226
SK-MEL-2 = tested on: SK-MEL-2
SF-539 = tested on: SF-539
T47D = tested on: T47D
HCT-116 = tested on: HCT-116
ACHN = tested on: ACHN
SR = tested on: SR
SK-OV-3 = tested on: SK-OV-3
SK-MEL-28 = tested on: SK-MEL-28
SK-MEL-5 = tested on: SK-MEL-5
Hs-578T = tested on: Hs-578T
SNB-75 = tested on: SNB-75
OVCAR-4 = tested on: OVCAR-4
UACC-257 = tested on: UACC-257
SF-295 = tested on: SF-295
OVCAR-5 = tested on: OVCAR-5
RPMI-8226 = tested on: RPMI-8226
MDA-N = tested on: MDA-N
IGROV-1 = tested on: IGROV-1
HOP-92 = tested on: HOP-92
HL-60 = tested on: HL-60
UACC-62 = tested on: UACC-62
TK-10 = tested on: TK-10
DU-145 = tested on: DU-145
NCI-H522 = tested on: NCI-H522
SN12C = tested on: SN12C
HT-29 = tested on: HT-29
OVCAR-3 = tested on: OVCAR-3
MOLT-4 = tested on: MOLT-4
MCF7 = tested on: MCF7
SW-620 = tested on: SW-620
K562 = tested on: K562
MDA-MB-435 = tested on: MDA-MB-435
SF-268 = tested on: SF-268
EKVX = tested on: EKVX
HOP-62 = tested on: HOP-62
KM12 = tested on: KM12
UO-31 = tested on: UO-31
786-0 = tested on: 786-0
NCI-H460 = tested on: NCI-H460
COLO 205 = tested on: COLO 205
LOX IMVI = tested on: LOX IMVI
SNB-19 = tested on: SNB-19
NCI-H23 = tested on: NCI-H23
CAKI-1 = tested on: CAKI-1
U-251 = tested on: U-251
HCC 2998 = tested on: HCC 2998
NCI/ADR-RES = tested on: NCI/ADR-RES
BT-549 = tested on: BT-549
HCT-15 = tested on: HCT-15
OVCAR-8 = tested on: OVCAR-8
CCRF-CEM = tested on: CCRF-CEM
A498 = tested on: A498
RXF 393 = tested on: RXF 393
MDA-MB-231 = tested on: MDA-MB-231
Malme-3M = tested on: Malme-3M
PC-3 = tested on: PC-3
M14 = tested on: M14

`CCOC(=O)c1cccc(NC(=O)CI)c1` was tested, and the GI50 (A549) was 1.75 µM (inactive), the GI50 (NCI-H226) was 0.601 µM (active) and the GI50 (SK-MEL-2) was 0.871 µM (active). For the same compound, the GI50 (SF-539) was 0.65 µM (active), the GI50 (T47D) was 1.39 µM (inactive) and the GI50 (HCT-116) was 0.301 µM (active). The GI50 (ACHN) was 0.682 µM (active), the GI50 (SR) was 0.0262 µM (active) and the GI50 (SK-OV-3) was 0.918 µM (active). For the same compound, the GI50 (SK-MEL-28) was 2.2 µM (inactive), the GI50 (SK-MEL-5) was 0.507 µM (active) and the GI50 (Hs-578T) was 2.34 µM (inactive). The GI50 (SNB-75) was 1.42 µM (inactive), the GI50 (OVCAR-4) was 0.5 µM (active) and the GI50 (UACC-257) was 1.36 µM (inactive). For the same compound, the GI50 (SF-295) was 2.47 µM (inactive), the GI50 (OVCAR-5) was 1.64 µM (inactive) and the GI50 (RPMI-8226) was 0.721 µM (active). The GI50 (MDA-N) was 0.211 µM (active), the GI50 (IGROV-1) was 0.338 µM (active) and the GI50 (HOP-92) was 1.07 µM (active). The GI50 (HL-60) was 0.653 µM (active), the GI50 (UACC-62) was 0.575 µM (active) and the GI50 (TK-10) was 0.897 µM (active). For the same compound, the GI50 (DU-145) was 1.76 µM (inactive), the GI50 (NCI-H522) was 0.179 µM (active) and the GI50 (SN12C) was 0.29 µM (active). The GI50 (HT-29) was 0.313 µM (active), the GI50 (OVCAR-3) was 0.391 µM (active) and the GI50 (MOLT-4) was 0.0284 µM (active). For the same compound, the GI50 (MCF7) was 0.394 µM (active), the GI50 (SW-620) was 0.207 µM (active) and the GI50 (K562) was 0.191 µM (active). For the same compound, the GI50 (MDA-MB-435) was 0.263 µM (active), the GI50 (SF-268) was 0.67 µM (active) and the GI50 (EKVX) was 1.93 µM (inactive). For the same compound, the GI50 (HOP-62) was 1.36 µM (inactive), the GI50 (KM12) was 1.67 µM (inactive) and the GI50 (UO-31) was 0.189 µM (active). The GI50 (786-0) was 0.169 µM (active), the GI50 (NCI-H460) was 1.2 µM (inactive) and the GI50 (COLO 205) was 0.531 µM (active). For the same compound, the GI50 (LOX IMVI) was 0.123 µM (active), the GI50 (SNB-19) was 3.54 µM (inactive) and the GI50 (NCI-H23) was 0.336 µM (active). The GI50 (CAKI-1) was 0.55 µM (active), the GI50 (U-251) was 0.313 µM (active) and the GI50 (HCC 2998) was 2.24 µM (inactive). For the same compound, the GI50 (NCI/ADR-RES) was 0.5 µM (active), the GI50 (BT-549) was 0.381 µM (active) and the GI50 (HCT-15) was 0.336 µM. For the same compound, the GI50 (OVCAR-8) was 0.264 µM (active), the GI50 (CCRF-CEM) was 0.0239 µM (active) and the GI50 (A498) was 2.07 µM (inactive). The GI50 (RXF 393) was 1.36 µM (inactive), the GI50 (MDA-MB-231) was 1.31 µM (inactive) and the GI50 (Malme-3M) was 1.21 µM (inactive). The GI50 (PC-3) was 1.14 µM (inactive) and the GI50 (M14) was 0.23 µM (active).

`COc1ccc(C2=Nn3c(C)nnc3S/C2=C\c2ccc(-c3ccc([N+](=O)[O-])cc3)o2)cc1` was tested, and the GI50 (A549) was 20 µM (inactive), the GI50 (NCI-H226) was 27.2 µM (inactive) and the GI50 (SK-MEL-2) was 13.3 µM (inactive). For the same compound, the GI50 (SF-539) was 5.51 µM (inactive), the GI50 (T47D) was 4.88 µM (inactive) and the GI50 (HCT-116) was 11 µM (inactive). The GI50 (ACHN) was 11.7 µM (inactive), the GI50 (SR) was 3.21 µM (inactive) and the GI50 (SK-OV-3) was 64.1 µM (inactive). For the same compound, the GI50 (SK-MEL-5) was 19 µM (inactive), the GI50 (Hs-578T) was 49.4 µM (inactive) and the GI50 (OVCAR-4) was 22.2 µM (inactive). For the same compound, the GI50 (UACC-257) was 17.3 µM (inactive), the GI50 (SF-295) was 38 µM (inactive) and the GI50 (OVCAR-5) was 18.4 µM (inactive). The GI50 (RPMI-8226) was 3.22 µM (inactive), the GI50 (MDA-N) was 6.62 µM (inactive) and the GI50 (IGROV-1) was 20.8 µM (inactive). For the same compound, the GI50 (HOP-92) was 22.5 µM (inactive), the GI50 (HL-60) was 5.12 µM (inactive) and the GI50 (UACC-62) was 12.1 µM (inactive). The GI50 (TK-10) was 13.7 µM (inactive), the GI50 (DU-145) was 12.2 µM (inactive) and the GI50 (NCI-H522) was 6.34 µM (inactive). The GI50 (SN12C) was 11 µM (inactive), the GI50 (HT-29) was 14.2 µM (inactive) and the GI50 (OVCAR-3) was 10.9 µM (inactive). For the same compound, the GI50 (MOLT-4) was 3.56 µM (inactive), the GI50 (MCF7) was 3.18 µM (inactive) and the GI50 (K562) was 3.55 µM (inactive). The GI50 (MDA-MB-435) was 3.78 µM (inactive), the GI50 (SF-268) was 12.3 µM (inactive) and the GI50 (EKVX) was 27.9 µM (inactive). For the same compound, the GI50 (HOP-62) was 24.4 µM (inactive), the GI50 (KM12) was 16.1 µM (inactive) and the GI50 (UO-31) was 15.1 µM (inactive). The GI50 (786-0) was 4.94 µM (inactive), the GI50 (NCI-H460) was 14.9 µM (inactive) and the GI50 (LOX IMVI) was 6.03 µM (inactive). The GI50 (SNB-19) was 15.6 µM (inactive), the GI50 (NCI-H23) was 13.9 µM (inactive) and the GI50 (CAKI-1) was 14.5 µM (inactive). For the same compound, the GI50 (U-251) was 9.33 µM (inactive), the GI50 (HCC 2998) was 7.41 µM (inactive) and the GI50 (NCI/ADR-RES) was 7.85 µM (inactive). For the same compound, the GI50 (BT-549) was 5.86 µM (inactive), the GI50 (HCT-15) was 10.9 µM and the GI50 (OVCAR-8) was 3.62 µM (inactive). For the same compound, the GI50 (CCRF-CEM) was 3.92 µM (inactive), the GI50 (A498) was 31.2 µM (inactive) and the GI50 (RXF 393) was 9.31 µM (inactive). For the same compound, the GI50 (MDA-MB-231) was 19.9 µM (inactive), the GI50 (Malme-3M) was 30.1 µM (inactive) and the GI50 (PC-3) was 9.84 µM (inactive). For the same compound, the GI50 (M14) was 17.7 µM (inactive).

With `CC(C)c1nc(Cl)c(Cl)c(Cl)n1` the GI50 (A549) was 2.58 µM (inactive), the GI50 (NCI-H226) was 17.7 µM (inactive) and the GI50 (SF-539) was 9.2 µM (inactive). The GI50 (T47D) was 4.14 µM (inactive), the GI50 (HCT-116) was 1.33 µM (inactive) and the GI50 (ACHN) was 0.769 µM (active). For the same compound, the GI50 (SR) was 0.431 µM (active), the GI50 (SK-OV-3) was 17.7 µM (inactive) and the GI50 (SK-MEL-28) was 14.2 µM (inactive). The GI50 (SK-MEL-5) was 16.2 µM (inactive), the GI50 (Hs-578T) was 2.76 µM (inactive) and the GI50 (SNB-75) was 11.2 µM (inactive). For the same compound, the GI50 (OVCAR-4) was 15.5 µM (inactive), the GI50 (UACC-257) was 4.29 µM (inactive) and the GI50 (SF-295) was 14.5 µM (inactive). The GI50 (OVCAR-5) was 5.77 µM (inactive), the GI50 (RPMI-8226) was 1.31 µM (inactive) and the GI50 (MDA-N) was 4.35 µM (inactive). For the same compound, the GI50 (IGROV-1) was 3.08 µM (inactive), the GI50 (HOP-92) was 3.24 µM (inactive) and the GI50 (HL-60) was 1.71 µM (inactive). For the same compound, the GI50 (UACC-62) was 8.41 µM (inactive), the GI50 (TK-10) was 11.4 µM (inactive) and the GI50 (DU-145) was 7.69 µM (inactive). For the same compound, the GI50 (NCI-H522) was 0.759 µM (active), the GI50 (SN12C) was 4.24 µM (inactive) and the GI50 (HT-29) was 2.1 µM (inactive). The GI50 (OVCAR-3) was 1.99 µM (inactive), the GI50 (MOLT-4) was 1.8 µM (inactive) and the GI50 (MCF7) was 1.75 µM (inactive). The GI50 (SW-620) was 1.7 µM (inactive), the GI50 (K562) was 0.286 µM (active) and the GI50 (MDA-MB-435) was 4.2 µM (inactive). The GI50 (SF-268) was 1.91 µM (inactive), the GI50 (EKVX) was 11.7 µM (inactive) and the GI50 (HOP-62) was 12.6 µM (inactive). For the same compound, the GI50 (KM12) was 8.39 µM (inactive), the GI50 (UO-31) was 1.19 µM (inactive) and the GI50 (786-0) was 2.99 µM (inactive). For the same compound, the GI50 (NCI-H460) was 12.6 µM (inactive), the GI50 (COLO 205) was 2.71 µM (inactive) and the GI50 (LOX IMVI) was 0.246 µM (active). The GI50 (SNB-19) was 18.6 µM (inactive), the GI50 (NCI-H23) was 4.06 µM (inactive) and the GI50 (CAKI-1) was 2.09 µM (inactive). The GI50 (U-251) was 3.42 µM (inactive), the GI50 (HCC 2998) was 3.49 µM (inactive) and the GI50 (NCI/ADR-RES) was 5.78 µM (inactive). For the same compound, the GI50 (BT-549) was 0.621 µM (active), the GI50 (HCT-15) was 0.695 µM and the GI50 (OVCAR-8) was 2.1 µM (inactive). For the same compound, the GI50 (CCRF-CEM) was 1.07 µM (active), the GI50 (A498) was 23.8 µM (inactive) and the GI50 (RXF 393) was 2.05 µM (inactive). For the same compound, the GI50 (MDA-MB-231) was 8.85 µM (inactive), the GI50 (Malme-3M) was 0.608 µM (active) and the GI50 (PC-3) was 4.31 µM (inactive). The GI50 (M14) was 5.51 µM (inactive).
